Results reported in PubChem BioAssay AID330 (DTP/NCI, 2004).
Where “and” joins values, the source holds several entries; their conditions need not be identical. Equal values may be shown once. Toxic doses and inconclusive results are not listed. Rule for the calls: active = survival T/C of 150% or more; inactive = T/C below 125% in these data.

Tested on: P388 leukemia ip, CD2F1 mice, survival T/C
Assay: NCI In Vivo Anticancer Drug Screen. Data for tumor model P388 Leukemia (intraperitoneal) in CD2F1 (CDF1) mice
Conditions: endpoint: median survival time, higher = longer survival
Summary of the method: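 Mice carrying the transplanted tumor received test compound or vehicle. Survival was recorded in each group, and the value is the treated-group measurement divided by that of the vehicle-treated control group.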

[1] = dose: 50.0 mg/kg/injection, schedule: Q01DX005 (ip), vehicle: Klucel (hydroxypropylcellulose) (HPC)
[2] = dose: 100.0 mg/kg/injection, schedule: Q01DX005 (ip), vehicle: Klucel (hydroxypropylcellulose) (HPC)
[3] = dose: 200.0 mg/kg/injection, schedule: Q01DX005 (ip), vehicle: Klucel (hydroxypropylcellulose) (HPC)
[4] = dose: 50.0 mg/kg/injection, schedule: Q01DX009 (ip), vehicle: saline
[5] = dose: 100.0 mg/kg/injection, schedule: Q01DX009 (ip), vehicle: saline
[6] = dose: 50.0 mg/kg/injection, schedule: Q01DX009 (ip), vehicle: saline with Tween-80
[7] = dose: 100.0 mg/kg/injection, schedule: Q01DX009 (ip), vehicle: saline with Tween-80
[8] = dose: 200.0 mg/kg/injection, schedule: Q01DX009 (ip), vehicle: saline with Tween-80
[9] = dose: 60.0 mg/kg/injection, schedule: Q01DX005 (ip), vehicle: saline with Tween-80
[10] = dose: 120.0 mg/kg/injection, schedule: Q01DX005 (ip), vehicle: saline with Tween-80
[11] = dose: 240.0 mg/kg/injection, schedule: Q01DX005 (ip), vehicle: saline with Tween-80
[12] = dose: 12.5 mg/kg/injection, schedule: Q01DX009 (ip), vehicle: saline with Tween-80
[13] = dose: 25.0 mg/kg/injection, schedule: Q01DX009 (ip), vehicle: saline with Tween-80
[14] = dose: 25.0 mg/kg/injection, schedule: Q01DX005 (ip), vehicle: saline with Tween-80
[15] = dose: 50.0 mg/kg/injection, schedule: Q01DX005 (ip), vehicle: saline with Tween-80

Measured: T/C

CC1(C)CCCC(C)(C2CCC3(C)C2C(O)CC2C4(C)CCC(O)C(C)(C)C4CCC23C)O1 (stereo not given)
inactive: dose: 8.0 mg/kg/injection, schedule: Q01DX009 (ip), vehicle: Klucel (hydroxypropylcellulose) (HPC) 101 % of control | dose: 16.0 mg/kg/injection, schedule: Q01DX009 (ip), vehicle: Klucel (hydroxypropylcellulose) (HPC) 96 % of control | dose: 32.0 mg/kg/injection, schedule: Q01DX009 (ip), vehicle: Klucel (hydroxypropylcellulose) (HPC) 99 % of control | dose: 37.5 mg/kg/injection, schedule: Q01DX009 (ip), vehicle: Klucel (hydroxypropylcellulose) (HPC) 103 % of control | dose: 64.0 mg/kg/injection, schedule: Q01DX009 (ip), vehicle: Klucel (hydroxypropylcellulose) (HPC) 97 % of control | dose: 75.0 mg/kg/injection, schedule: Q01DX009 (ip), vehicle: Klucel (hydroxypropylcellulose) (HPC) 94 % of control | dose: 150.0 mg/kg/injection, schedule: Q01DX009 (ip), vehicle: Klucel (hydroxypropylcellulose) (HPC) 100 % of control | dose: 300.0 mg/kg/injection, schedule: Q01DX009 (ip), vehicle: Klucel (hydroxypropylcellulose) (HPC) 91 % of control

COc1cc2c(cc1OC)C(Cc1cc(OC)c(OC)cc1[N+](=O)[O-])=[N+](C)CC2
inactive: dose: 25.0 mg/kg/injection, schedule: Q01DX009 (ip), vehicle: other 98 % of control | dose: 50.0 mg/kg/injection, schedule: Q01DX009 (ip), vehicle: other 96 % of control | dose: 100.0 mg/kg/injection, schedule: Q01DX009 (ip), vehicle: other 102 % of control

CN(c1ccccc1)C1C2=C(CCCC2)OC(=O)C12SCCCS2 (stereo not given)
inactive: dose: 25.0 mg/kg/injection, schedule: Q04DX003 (ip), vehicle: saline with Tween-80 94 % of control | dose: 50.0 mg/kg/injection, schedule: Q04DX003 (ip), vehicle: saline with Tween-80 96 % of control | dose: 100.0 mg/kg/injection, schedule: Q04DX003 (ip), vehicle: saline with Tween-80 100 % of control and 98 % of control | dose: 132.0 mg/kg/injection, schedule: Q04DX003 (ip), vehicle: saline with Tween-80 98 % of control | dose: 200.0 mg/kg/injection, schedule: Q04DX003 (ip), vehicle: saline with Tween-80 106 % of control | dose: 300.0 mg/kg/injection, schedule: Q04DX003 (ip), vehicle: saline with Tween-80 119 % of control | dose: 400.0 mg/kg/injection, schedule: Q04DX003 (ip), vehicle: saline with Tween-80 105 % of control and 98 % of control

CC1CCC2=C(C1)c1ccc(O)cc1OC2(C)C (stereo not given)
inactive: [1] 100 % of control | [2] 96 % of control | [3] 93 % of control

COc1ccc2c(C)cc(N/N=C/c3ccc(OC)c4ccccc34)nc2c1
inactive: [1] 98 % of control | [2] 102 % of control | [3] 94 % of control

COCN(CCc1ccccc1)CCN(C)C
inactive: [4] 113 % of control | [5] 109 % of control

CC(=O)OC1=CC2C(OC1=O)C1C=CC2(OC(C)=O)C(=O)O1 (stereo not given)
inactive: [6] 102 % of control | [7] 104 % of control | [8] 113 % of control

CCN(CC)c1c(C)c(C(=O)OC)nn1-c1ccccc1
inactive: [9] 107 % of control | [10] 104 % of control | [11] 96 % of control

C=CC=O
inactive: dose: 0.44 mg/kg/injection, schedule: Q01DX009 (ip), vehicle: saline 109 % of control | dose: 0.88 mg/kg/injection, schedule: Q01DX009 (ip), vehicle: saline 109 % of control | dose: 1.56 mg/kg/injection, schedule: Q01DX009 (ip), vehicle: saline 109 % of control

O=P(c1ccccc1)(c1ccccc1)c1ccccc1.O=P(c1ccccc1)(c1ccccc1)c1ccccc1.O=P(c1ccccc1)(c1ccccc1)c1ccccc1.O=P(c1ccccc1)(c1ccccc1)c1ccccc1.[Ni+2].[O-][Cl+3]([O-])([O-])O
inactive: [12] 96 % of control | [13] 101 % of control | [6] 90 % of control and 95 % of control

CN(C)c1nc(NC(=O)NC(=O)c2c(F)cccc2F)nc(N(C)C)n1
inactive: dose: 6.25 mg/kg/injection, schedule: Q01DX009 (ip), vehicle: saline with Tween-80 101 % of control | [12] 111 % of control | [13] 104 % of control

NNC(=O)CCc1c[nH]c2ccccc12
inactive: dose: 50.0 mg/kg/injection, schedule: Q01DX001 (ip), vehicle: saline with Tween-80 100 % of control | dose: 100.0 mg/kg/injection, schedule: Q01DX001 (ip), vehicle: saline with Tween-80 96 % of control | dose: 200.0 mg/kg/injection, schedule: Q01DX001 (ip), vehicle: saline with Tween-80 111 % of control | dose: 400.0 mg/kg/injection, schedule: Q01DX001 (ip), vehicle: saline with Tween-80 111 % of control

CCN(CC)C1(C(F)C(F)(F)F)OCC2(CO1)COC(C(F)C(F)(F)F)(N(CC)CC)OC2 (stereo not given)
inactive: [9] 98 % of control | [10] 104 % of control | [11] 91 % of control

C[Si](C)(C)N[Si](C)(C)C
inactive: dose: 50.0 mg/kg/injection, schedule: Q01DX009 (ip), vehicle: Klucel (hydroxypropylcellulose) (HPC) 100 % of control | dose: 100.0 mg/kg/injection, schedule: Q01DX009 (ip), vehicle: Klucel (hydroxypropylcellulose) (HPC) 102 % of control

O=C1C2=C(CCC2)C2CCCC12 (stereo not given)
inactive: [6] 102 % of control | [7] 109 % of control | [8] 90 % of control

C[C@H]1CC(c2ccc(Cl)cc2)[C@@H](c2ccccc2)C(=O)O1 (stereo not given in full)
inactive: dose: 100.0 mg/kg/injection, schedule: Q04DX003 (ip), vehicle: Klucel (hydroxypropylcellulose) (HPC) 92 % of control | dose: 200.0 mg/kg/injection, schedule: Q04DX003 (ip), vehicle: Klucel (hydroxypropylcellulose) (HPC) 93 % of control | dose: 400.0 mg/kg/injection, schedule: Q04DX003 (ip), vehicle: Klucel (hydroxypropylcellulose) (HPC) 92 % of control

Clc1cnc2n[se]nc2c1
inactive: dose: 25.0 mg/kg/injection, schedule: Q04DX002 (ip), vehicle: saline 106 % of control | dose: 50.0 mg/kg/injection, schedule: Q04DX002 (ip), vehicle: saline 116 % of control | dose: 100.0 mg/kg/injection, schedule: Q04DX002 (ip), vehicle: saline 105 % of control and 114 % of control

OCc1cccc2c1C(O)c1ccccc1-2 (stereo not given)
inactive: [1] 100 % of control | [2] 104 % of control | [3] 100 % of control

CCCCCN(CCCCC)CCC(O)c1cccc2ccccc12 (stereo not given)
inactive: dose: 12.5 mg/kg/injection, schedule: Q01DX005 (ip), vehicle: saline with Tween-80 100 % of control | [14] 105 % of control | [15] 103 % of control and 113 % of control

Cc1ccc([Se](=C(C(=O)c2ccccc2)C(=O)c2ccccc2)c2ccc(C)cc2)cc1
inactive: [4] 104 % of control | [5] 100 % of control | dose: 200.0 mg/kg/injection, schedule: Q01DX009 (ip), vehicle: saline 104 % of control

COc1cc2cc3c(c(O)c2c(OC)c1OC)C(=O)CC(C)(C)C3
inactive: [14] 101 % of control | [15] 91 % of control

O=c1c(-c2ccc(O)cc2)coc2c(C3OC(CO)C(O)C(O)C3O)c(O)ccc12 (stereo not given)
inactive: [15] 104 % of control | dose: 100.0 mg/kg/injection, schedule: Q01DX005 (ip), vehicle: saline with Tween-80 101 % of control | dose: 200.0 mg/kg/injection, schedule: Q01DX005 (ip), vehicle: saline with Tween-80 93 % of control

COC(=O)NC1C(=O)CCC(=O)C1C(N)=O (stereo not given)
inactive: dose: 7.5 mg/kg/injection, schedule: Q01DX005 (ip), vehicle: saline with Tween-80 86 % of control | dose: 15.0 mg/kg/injection, schedule: Q01DX005 (ip), vehicle: saline with Tween-80 98 % of control
